Test system: SW 982 tumor spheroid viability
Assay: Anticancer human tumor SW 982 cell line growth inhibition;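 also: spheroids exposed to compound for 7 days before readout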
Settings: spheroids with HUVEC and MSC; for IC50: curve of first compound; for viability, T/C: stronger effect = lower value
How it was run: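 Single agents and combinations were tested on spheroids built from tumor cells plus HUVEC and hMSC, at half-log dilutions starting at or near clinical Cmax, else 10 microM; final DMSO 0.25% (v/v).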

Question: Which results are given for `Cc1cc(C)c(CNC(=O)c2cc(-c3ccc(CN4CCOCC4)cc3)cc3c2cnn3C2CCCC2)c(=O)[nH]1` + Cn1nnc2c(C(N)=O)ncn2c1=O?
Answer: IC50 (second compound 1 µM): > 10 µM; IC50 (second compound 3.16 µM): > 10 µM; IC50 (second compound 10 µM): > 10 µM; IC50 (second compound 31.6 µM): > 10 µM; IC50 (second compound 100 µM): > 10 µM; viability, T/C (second compound 1 µM, first compound 0.0316 µM): 102%; viability, T/C (second compound 1 µM, first compound 0.1 µM): 104%; viability, T/C (second compound 1 µM, first compound 0.316 µM): 103%; viability, T/C (second compound 1 µM, first compound 1 µM): 103%; viability, T/C (second compound 1 µM, first compound 3.16 µM): 92.1%; viability, T/C (second compound 1 µM, first compound 10 µM): 91.2%; viability, T/C (second compound 3.16 µM, first compound 0.0316 µM): 88.4%; viability, T/C (second compound 3.16 µM, first compound 0.1 µM): 99.2%; viability, T/C (second compound 3.16 µM, first compound 0.316 µM): 101%; viability, T/C (second compound 3.16 µM, first compound 1 µM): 96.6%; viability, T/C (second compound 3.16 µM, first compound 3.16 µM): 92.3%; viability, T/C (second compound 3.16 µM, first compound 10 µM): 70.6%; viability, T/C (second compound 10 µM, first compound 0.0316 µM): 86.7%; viability, T/C (second compound 10 µM, first compound 0.1 µM): 82.6%; viability, T/C (second compound 10 µM, first compound 0.316 µM): 81.3%; viability, T/C (second compound 10 µM, first compound 1 µM): 82.8%; viability, T/C (second compound 10 µM, first compound 3.16 µM): 82.2%; viability, T/C (second compound 10 µM, first compound 10 µM): 53.4%; viability, T/C (second compound 31.6 µM, first compound 0.0316 µM): 73.8%; viability, T/C (second compound 31.6 µM, first compound 0.1 µM): 69%; viability, T/C (second compound 31.6 µM, first compound 0.316 µM): 74.9%; viability, T/C (second compound 31.6 µM, first compound 1 µM): 73.5%; viability, T/C (second compound 31.6 µM, first compound 3.16 µM): 74.4%; viability, T/C (second compound 31.6 µM, first compound 10 µM): 58.7%; viability, T/C (second compound 100 µM, first compound 0.0316 µM): 58.9%; viability, T/C (second compound 100 µM, first compound 0.1 µM): 63%; viability, T/C (second compound 100 µM, first compound 0.316 µM): 57.7%; viability, T/C (second compound 100 µM, first compound 1 µM): 63.5%; viability, T/C (second compound 100 µM, first compound 3.16 µM): 55.3%; viability, T/C (second compound 100 µM, first compound 10 µM): 53.8%

Question: `COc1ccc([C@@H](O)c2cc(-c3ncnc4cc(N5CCOCC5)ccc34)c(F)cc2Cl)nn1` + COc1cc2c(cc1O)CCNC21CSC2c3c(OC(C)=O)c(C)c4c(c3C(COC1=O)N1C(O)C3Cc5cc(C)c(OC)c(O)c5C(C21)N3C)OCO4 was tested. Which IC50 (second compound 30 pM) did it give?
Answer: Its IC50 is 7.19 µM.

Question: What about the IC50 (second compound 94.9 pM) of the same compound?
Answer: Its IC50 is 4.6 µM.

Question: And the IC50 (second compound 0.0003 µM)?
Answer: Its IC50 is 1.07 µM.

Question: What about the IC50 (second compound 0.000949 µM) of the same compound?
Answer: The IC50 was less than 0.0316 µM.

Question: What about the IC50 (second compound 0.003 µM) of the same compound?
Answer: The IC50 was less than 0.0316 µM.

Question: What about the viability, T/C (second compound 30 pM, first compound 0.0316 µM) of the same compound?
Answer: The viability, T/C was 102%.

Question: And the viability, T/C (second compound 30 pM, first compound 0.1 µM)?
Answer: The viability, T/C was 102%.

Question: What about the viability, T/C (second compound 30 pM, first compound 0.316 µM) of the same compound?
Answer: The viability, T/C was 96.4%.

Question: What about the viability, T/C (second compound 30 pM, first compound 1 µM) of the same compound?
Answer: The viability, T/C was 88.8%.

Question: What about the viability, T/C (second compound 30 pM, first compound 3.16 µM) of the same compound?
Answer: The viability, T/C was 79.6%.

Question: What about the viability, T/C (second compound 30 pM, first compound 10 µM) of the same compound?
Answer: The viability, T/C was 38.8%.

Question: What about the viability, T/C (second compound 94.9 pM, first compound 0.0316 µM) of the same compound?
Answer: The viability, T/C was 96.3%.

Question: And the viability, T/C (second compound 94.9 pM, first compound 0.1 µM)?
Answer: Its viability, T/C is 97.3%.

Question: And the viability, T/C (second compound 94.9 pM, first compound 0.316 µM)?
Answer: Its viability, T/C is 93.4%.

Question: And the viability, T/C (second compound 94.9 pM, first compound 1 µM)?
Answer: Its viability, T/C is 70.8%.

Question: And the viability, T/C (second compound 94.9 pM, first compound 3.16 µM)?
Answer: Its viability, T/C is 65.9%.

Question: What about the viability, T/C (second compound 94.9 pM, first compound 10 µM) of the same compound?
Answer: Its viability, T/C is 26.9%.

Question: What about the viability, T/C (second compound 0.0003 µM, first compound 0.0316 µM) of the same compound?
Answer: The viability, T/C was 84.1%.

Question: And the viability, T/C (second compound 0.0003 µM, first compound 0.1 µM)?
Answer: Its viability, T/C is 83.1%.

Question: And the viability, T/C (second compound 0.0003 µM, first compound 0.316 µM)?
Answer: The viability, T/C was 84%.

Question: And the viability, T/C (second compound 0.0003 µM, first compound 1 µM)?
Answer: The viability, T/C was 48%.

Question: And the viability, T/C (second compound 0.0003 µM, first compound 3.16 µM)?
Answer: The viability, T/C was 23.6%.

Question: What about the viability, T/C (second compound 0.0003 µM, first compound 10 µM) of the same compound?
Answer: Its viability, T/C is 6.67%.

Question: And the viability, T/C (second compound 0.000949 µM, first compound 0.0316 µM)?
Answer: The viability, T/C was 36.2%.

Question: What about the viability, T/C (second compound 0.000949 µM, first compound 0.1 µM) of the same compound?
Answer: Its viability, T/C is 32.6%.

Question: And the viability, T/C (second compound 0.000949 µM, first compound 0.316 µM)?
Answer: The viability, T/C was 19.4%.

Question: And the viability, T/C (second compound 0.000949 µM, first compound 1 µM)?
Answer: The viability, T/C was 4.23%.

Question: And the viability, T/C (second compound 0.000949 µM, first compound 3.16 µM)?
Answer: The viability, T/C was 0.86%.

Question: What about the viability, T/C (second compound 0.000949 µM, first compound 10 µM) of the same compound?
Answer: The viability, T/C was 0.73%.

Question: What about the viability, T/C (second compound 0.003 µM, first compound 0.0316 µM) of the same compound?
Answer: Its viability, T/C is 0.88%.

Question: And the viability, T/C (second compound 0.003 µM, first compound 0.1 µM)?
Answer: Its viability, T/C is 0.57%.

Question: What about the viability, T/C (second compound 0.003 µM, first compound 0.316 µM) of the same compound?
Answer: Its viability, T/C is 0.41%.

Question: What about the viability, T/C (second compound 0.003 µM, first compound 1 µM) of the same compound?
Answer: The viability, T/C was 1.06%.

Question: And the viability, T/C (second compound 0.003 µM, first compound 3.16 µM)?
Answer: Its viability, T/C is 1.12%.

Question: What about the viability, T/C (second compound 0.003 µM, first compound 10 µM) of the same compound?
Answer: The viability, T/C was 1.01%.

Reference: PubChem BioAssay AID1845216 (Molecular Pharmacology Branch, DTP, NCI, 2023)
